Measurements from patent US12059422B2 (MEI Pharma, Inc., priority 2011, dated 2024).

Biological target: T1, PI3Kδ (Homo sapiens, UniProt O00329)
T1 construct: endogenous in cells; host or cells: Raji (ATCC #CCL-86)
Experiment: ELISA assay for PI3Kδ: sandwich ELISA, phosphorylation of AKT (Thr308) in Raji cells
Format: cell-based
Details: for IC50: cellular, pAKT (Thr308), Raji cells, anti-Human IgM stimulation, read-out: IC50 p110δ; for α/δ ratio / β/δ ratio / γ/δ ratio: ratio of cellular IC50 values, Table 2
Description: Cellular PI3Kδ activity was determined by measuring the phosphorylation of AKT (Thr308) using a sandwich enzyme-linked immunosorbant assay (ELISA). Raji (Burkitt's Lymphoma) cells were obtained from ATCC (ATCC #CCL-86). Phosphate buffer saline (PBS) contained 2.7 M NaCl, 54 mM KCl, 86 mM […] (dibasic, anhydrous), and 28 mM […] (monobasic, anhydrous) at pH 7.2. Wash buffer contained PBS supplemented with 0.05% Tween-20. Blocking buffer contained wash buffer supplemented with 1% BSA. A 10× stimulation mixture contained 5 μg/mL anti-Human IgM antibody (Sigma #12386) diluted in serum-free RPMI medium (CellGro #CV-10-040-CV). Compounds for testing were dissolved and serially diluted in 100% DMSO (total of 10 concentrations), and then diluted in serum-free RPMI to 5×final assay concentration.
Raji cells were subcultured in RPMI medium supplemented with 10% fetal bovine serum, 100 IU/mL penicillin, 100 μg/mL streptomycin, and 1×MEM non-essential amino acids. Sandwich ELISA plates were prepared by coating 96-well assay plates (Pierce #15042) with 100 μL/well capture antibody (Cell Signaling Technology #7142 or 7144) diluted in PBS. Plates were incubated overnight at 4° C., then washed with wash buffer, after which 200 μL/well blocking buffer was added to the plates and incubated at room temperature for at least 2 hrs. Raji cells were resuspended in serum-free RPMI medium and seeded into V-bottom, 2-mL 96-well blocks (Corning #3961) at 10^6 cells/well, then incubated for 2 hrs in a 37° C., 5% CO2 incubator. Compound treatment was performed by adding the 5× compound mixture to the cells and incubating for 2 hrs at 37° C., 5% CO2, after which the 10× stimulation mixture was added to the plates and incubated for 30 min at 37° C., 5% CO2. Cells were pelleted by centrifuging plates at 1500 RPM for 5 min at room temperature. Media was carefully removed and cells were lysed by adding 100 μL/well cell lysis buffer (Cell Signaling Technology #9803) supplemented with protease and phosphatase inhibitors (Thermo Fisher #78443). Plates were incubated on ice for 30 min, then the lysates (80 μL for pAKT^T308, 10 μL for total AKT) were transferred to prepared assay plates and incubated at 4° C. overnight. After washing plates with wash buffer, 100 μL/well detection antibody (Cell Signaling Technology #7142 or 7144) diluted in blocking buffer was added to the plates and incubated for 1 hr at 37° C. Plates were washed and 100 μL/well of HRP-conjugated secondary antibody (Cell Signaling Technology #7142 or 7144) diluted in blocking buffer was added to plates and incubated for 1 hr at room temperature. Plates were washed with wash buffer and 100 μL/well of luminescent substrate was added to plates. After 1 min on a plate shaker at medium speed, luminescence was read on a Wallac Victor2 plate reader. IC50 values were determined by curve fitting using a Collaborative Drug Discovery database (www.collaborativedrug.com).

T1 sequence (O00329 whole entry): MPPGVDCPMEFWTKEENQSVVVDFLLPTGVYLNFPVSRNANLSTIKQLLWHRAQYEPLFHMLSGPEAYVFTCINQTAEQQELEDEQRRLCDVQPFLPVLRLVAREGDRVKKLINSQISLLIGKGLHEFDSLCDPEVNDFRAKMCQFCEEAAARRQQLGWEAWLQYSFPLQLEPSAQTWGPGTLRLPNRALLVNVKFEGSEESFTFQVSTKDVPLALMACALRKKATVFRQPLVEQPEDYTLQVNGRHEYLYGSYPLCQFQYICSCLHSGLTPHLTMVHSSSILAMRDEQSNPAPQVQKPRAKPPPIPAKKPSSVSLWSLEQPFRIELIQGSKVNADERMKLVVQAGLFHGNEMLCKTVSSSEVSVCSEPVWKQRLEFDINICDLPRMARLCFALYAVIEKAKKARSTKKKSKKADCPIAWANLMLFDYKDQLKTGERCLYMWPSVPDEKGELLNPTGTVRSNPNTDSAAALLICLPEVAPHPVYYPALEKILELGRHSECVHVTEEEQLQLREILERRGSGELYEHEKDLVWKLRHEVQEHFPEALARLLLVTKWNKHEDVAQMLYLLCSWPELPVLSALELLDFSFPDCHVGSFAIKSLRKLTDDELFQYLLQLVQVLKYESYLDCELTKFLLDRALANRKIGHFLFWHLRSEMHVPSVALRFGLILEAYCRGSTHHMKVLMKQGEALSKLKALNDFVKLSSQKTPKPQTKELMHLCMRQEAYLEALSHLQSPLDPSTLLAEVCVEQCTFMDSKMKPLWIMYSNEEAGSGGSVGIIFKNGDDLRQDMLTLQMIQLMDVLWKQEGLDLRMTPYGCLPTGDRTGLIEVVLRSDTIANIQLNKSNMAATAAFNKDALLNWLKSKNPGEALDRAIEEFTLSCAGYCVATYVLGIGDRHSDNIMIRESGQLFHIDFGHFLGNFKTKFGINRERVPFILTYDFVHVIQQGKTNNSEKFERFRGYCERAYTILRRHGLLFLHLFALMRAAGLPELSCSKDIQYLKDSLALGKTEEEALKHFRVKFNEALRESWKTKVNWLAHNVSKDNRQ
T1 sequence (P27986 whole entry partner): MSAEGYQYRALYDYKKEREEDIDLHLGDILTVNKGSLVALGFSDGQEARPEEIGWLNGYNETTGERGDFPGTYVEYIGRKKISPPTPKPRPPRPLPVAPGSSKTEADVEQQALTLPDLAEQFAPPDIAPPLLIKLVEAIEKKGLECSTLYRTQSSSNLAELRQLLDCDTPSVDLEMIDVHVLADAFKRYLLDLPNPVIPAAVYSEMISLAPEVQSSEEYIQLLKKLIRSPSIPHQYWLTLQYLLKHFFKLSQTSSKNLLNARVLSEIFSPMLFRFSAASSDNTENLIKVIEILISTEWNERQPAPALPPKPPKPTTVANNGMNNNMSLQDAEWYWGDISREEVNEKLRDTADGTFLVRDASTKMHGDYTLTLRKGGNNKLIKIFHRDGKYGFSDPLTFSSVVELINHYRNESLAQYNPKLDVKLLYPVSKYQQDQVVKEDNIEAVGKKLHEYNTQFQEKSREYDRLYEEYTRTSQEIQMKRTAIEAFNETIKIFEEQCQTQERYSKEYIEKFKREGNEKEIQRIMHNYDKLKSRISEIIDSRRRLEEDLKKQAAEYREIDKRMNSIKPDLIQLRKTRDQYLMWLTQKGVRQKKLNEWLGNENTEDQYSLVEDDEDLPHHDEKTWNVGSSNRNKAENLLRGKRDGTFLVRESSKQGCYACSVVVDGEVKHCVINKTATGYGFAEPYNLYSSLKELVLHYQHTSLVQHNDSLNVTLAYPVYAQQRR

SMILES	IC50 [nM]	α/δ ratio	β/δ ratio	γ/δ ratio
CC(C)(Cc1ccccc1F)Nc1nc(N2CCOCC2)nc(-n2c(C(F)F)nc3ccccc32)n1 [Compound A15, 4-(2-(difluoromethyl)-1H-benzo[d]imidazol-1-yl)-N-(1-(2-fluorophenyl)-2-methylpropan-2-yl)-6-morpholino-1,3,5-triazin-2-amine]	≤ 100	A’	C’	A’
Cc1ccccc1CC(C)(C)Nc1nc(N2CCOCC2)nc(-n2c(C(F)F)nc3ccccc32)n1 [Compound A18, 4-(2-(difluoromethyl)-1H-benzo[d]imidazol-1-yl)-N-(2-methyl-1-(o-tolyl)propan-2-yl)-6-morpholino-1,3,5-triazin-2-amine]	≤ 100	A’	A’	A’
COc1ccccc1CC(C)(C)Nc1nc(N2CCOCC2)nc(-n2c(C(F)F)nc3ccccc32)n1 [Compound A19, 4-(2-(difluoromethyl)-1H-benzo[d]imidazol-1-yl)-N-(1-(2-methoxyphenyl)-2-methylpropan-2-yl)-6-morpholino-1,3,5-triazin-2-amine]	≤ 100		D’	
COc1cccc(CC(C)(C)Nc2nc(N3CCOCC3)nc(-n3c(C(F)F)nc4ccccc43)n2)c1 [Compound A21, 4-(2-(difluoromethyl)-1H-benzo[d]imidazol-1-yl)-N-(1-(3-methoxyphenyl)-2-methylpropan-2-yl)-6-morpholino-1,3,5-triazin-2-amine]	≤ 100	A’	A’	A’
CC(C)(Cc1ccc(F)cc1)Nc1nc(N2CCOCC2)nc(-n2c(C(F)F)nc3ccccc32)n1 [Compound A22, 4-(2-(difluoromethyl)-1H-benzo[d]imidazol-1-yl)-N-(1-(4-fluorophenyl)-2-methylpropan-2-yl)-6-morpholino-1,3,5-triazin-2-amine]	≤ 100	A’	A’	A’
CC(C)(Cc1cccc(F)c1)Nc1nc(N2CCOCC2)nc(-n2c(C(F)F)nc3ccccc32)n1 [Compound A39, 4-(2-(difluoromethyl)-1H-benzo[d]imidazol-1-yl)-N-(1-(3-fluorophenyl)-2-methylpropan-2-yl)-6-morpholino-1,3,5-triazin-2-amine]	≤ 100	A’		A’
CC(C)(Cc1ccccc1-c1cccnc1)Nc1nc(N2CCOCC2)nc(-n2c(C(F)F)nc3ccccc32)n1 [Compound A40, 4-(2-(difluoromethyl)-1H-benzo[d]imidazol-1-yl)-N-(2-methyl-1-(2-(pyridin-3-yl)phenyl)propan-2-yl)-6-morpholino-1,3,5-triazin-2-amine]	≤ 100	A’	A’	A’
Cc1cc(-c2ccccc2CC(C)(C)Nc2nc(N3CCOCC3)nc(-n3c(C(F)F)nc4ccccc43)n2)ccn1 [Compound A43, 4-(2-(difluoromethyl)-1H-benzo[d]imidazol-1-yl)-N-(2-methyl-1-(2-(2-methylpyridin-4-yl)phenyl)propan-2-yl)-6-morpholino-1,3,5-triazin-2-amine]	≤ 100	A’	A’	A’
CC(C)(Cc1ccccc1-c1cn[nH]c1)Nc1nc(N2CCOCC2)nc(-n2c(C(F)F)nc3ccccc32)n1 [Compound A44, 4-(2-(difluoromethyl)-1H-benzo[d]imidazol-1-yl)-N-(1-(2-(1H-pyrazol-4-yl)phenyl)-2-methylpropan-2-yl)-6-morpholino-1,3,5-triazin-2-amine]	≤ 100	A’	A’	A’
Cn1cc(-c2ccccc2CC(C)(C)Nc2nc(N3CCOCC3)nc(-n3c(C(F)F)nc4ccccc43)n2)cn1 [Compound A45, 4-(2-(difluoromethyl)-1H-benzo[d]imidazol-1-yl)-N-(2-methyl-1-(2-(1-methyl-1H-pyrazol-4-yl)phenyl)propan-2-yl)-6-morpholino-1,3,5-triazin-2-amine]	≤ 100	A’	B’	A’
Cn1nccc1-c1ccccc1CC(C)(C)Nc1nc(N2CCOCC2)nc(-n2c(C(F)F)nc3ccccc32)n1 [Compound A46, 4-(2-(difluoromethyl)-1H-benzo[d]imidazol-1-yl)-N-(2-methyl-1-(2-(1-methyl-1H-pyrazol-5-yl)phenyl)propan-2-yl)-6-morpholino-1,3,5-triazin-2-amine]	≤ 100	A’	B’	A’

Further lines, results first:

IC50 [nM]	α/δ ratio	β/δ ratio	γ/δ ratio	SMILES
≤ 100	A’	A’	A’	CC(C)(Cc1ccccc1)Nc1nc(N2CCOCC2)nc(-n2c(C(F)F)nc3ccccc32)n1 [Compound A14, 4-(2-(difluoromethyl)-1H-benzo[d]imidazol-1-yl)-N-(2-methyl-1-phenylpropan-2-yl)-6-morpholino-1,3,5-triazin-2-amine]
≤ 100	A’	A’	A’	CC(C)(Cc1ccccc1Cl)Nc1nc(N2CCOCC2)nc(-n2c(C(F)F)nc3ccccc32)n1 [Compound A16, 4-(2-(difluoromethyl)-1H-benzo[d]imidazol-1-yl)-N-(1-(2-chlorophenyl)-2-methylpropan-2-yl)-6-morpholino-1,3,5-triazin-2-amine]
≤ 100		C’		CC(C)(Cc1cccc2ccccc12)Nc1nc(N2CCOCC2)nc(-n2c(C(F)F)nc3ccccc32)n1 [Compound A27, 4-(2-(difluoromethyl)-1H-benzo[d]imidazol-1-yl)-N-(2-methyl-1-(naphthalen-1-yl)propan-2-yl)-6-morpholino-1,3,5-triazin-2-amine]
≤ 100		A’	A’	CC(C)(Cc1ccccc1-c1ccncc1)Nc1nc(N2CCOCC2)nc(-n2c(C(F)F)nc3ccccc32)n1 [Compound A33, 4-(2-(difluoromethyl)-1H-benzo[d]imidazol-1-yl)-N-(2-methyl-1-(2-(pyridin-4-yl)phenyl)propan-2-yl)-6-morpholino-1,3,5-triazin-2-amine]
≤ 100	A’	A’	A’	CN1CCC(c2ccccc2CC(C)(C)Nc2nc(N3CCOCC3)nc(-n3c(C(F)F)nc4ccccc43)n2)CC1 [Compound A35, 4-(2-(difluoromethyl)-1H-benzo[d]imidazol-1-yl)-N-(2-methyl-1-(2-(1-methylpiperidin-4-yl)phenyl)propan-2-yl)-6-morpholino-1,3,5-triazin-2-amine]
≤ 100	A’	A’	A’	COc1cc(-c2ccccc2CC(C)(C)Nc2nc(N3CCOCC3)nc(-n3c(C(F)F)nc4ccccc43)n2)ccn1 [Compound A41, 4-(2-(difluoromethyl)-1H-benzo[d]imidazol-1-yl)-N-(1-(2-(2-methoxypyridin-4-yl)phenyl)-2-methylpropan-2-yl)-6-morpholino-1,3,5-triazin-2-amine]
